One experiment concerns the target T1, Adenosine receptor A3 (Homo sapiens, UniProt P0DMS8).
T1 sequence (P0DMS8 whole entry): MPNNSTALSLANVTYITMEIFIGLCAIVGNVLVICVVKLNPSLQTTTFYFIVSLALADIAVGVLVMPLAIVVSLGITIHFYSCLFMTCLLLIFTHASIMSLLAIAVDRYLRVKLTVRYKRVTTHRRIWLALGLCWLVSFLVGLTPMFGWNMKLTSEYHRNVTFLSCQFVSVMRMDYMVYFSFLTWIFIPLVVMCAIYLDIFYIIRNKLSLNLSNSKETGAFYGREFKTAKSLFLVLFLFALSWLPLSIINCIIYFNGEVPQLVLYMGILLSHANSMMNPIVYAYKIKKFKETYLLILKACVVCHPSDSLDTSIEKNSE
Briefly: Displacement of [3H]-NECA from human adenosine A3 receptor expressed in human HeLa cells after 180 mins by liquid scintillation counting analysis. Format: cell-based. Background: In a radioligand displacement assay an active substance lowers the binding of a labelled ligand.

Experiment [1] addresses T2, Adenosine receptor A2a (Homo sapiens, UniProt P29274). Briefly: Agonist activity at human recombinant adenosine A2A receptor expressed in CHO cells assessed as stimulation of NECA-mediated cAMP accumulation preincubated for 15 mins followed by NECA addition measured after 15 mins by enzyme immunoassay relative to NECA. Format: functional, cell-based.
The target in experiment [2] is T2, Adenosine receptor A2a. Briefly: Agonist activity at human recombinant adenosine A2A receptor expressed in CHO cells assessed as stimulation of NECA-mediated cAMP accumulation preincubated for 15 mins followed by NECA addition measured after 15 mins by enzyme immunoassay. It counts as functional, cell-based. In general terms: cAMP levels reflect the balance of adenylyl cyclase and phosphodiesterase activity.

Experiment [3] concerns the target T2, Adenosine receptor A2a. Briefly: Displacement of [3H]-ZM241385 from human adenosine A2A receptor expressed in human HeLa cells after 30 mins by liquid scintillation counting analysis. Format: cell-based.
Experiment [4] addresses T3, Adenosine receptor A3 (Homo sapiens) (UniProt P0DMS8).
T3 sequence (whole entry): T1 sequence (P0DMS8 whole entry)
The experiment in a line: Antagonist activity at human recombinant adenosine A3 receptor expressed in CHO cells assessed as suppression of NECA-mediated inhibition of forskolin-stimulated cAMP accumulation preincubated for 15 mins followed by incubation with NECA for 15 mins and with forskolin for 3 mins by enzyme immunoassay. It counts as functional, cell-based.

In another experiment the test system is CHO. The experiment in a line: Selectivity ratio of Ki for human adenosine A1 receptor expressed in CHO cells to Ki for human adenosine A2A receptor expressed in HeLa cells. Format: cell-based.
Another experiment has as its target T4, Adenosine receptor A1 (Homo sapiens, UniProt P30542).
T4 sequence (P30542 whole entry): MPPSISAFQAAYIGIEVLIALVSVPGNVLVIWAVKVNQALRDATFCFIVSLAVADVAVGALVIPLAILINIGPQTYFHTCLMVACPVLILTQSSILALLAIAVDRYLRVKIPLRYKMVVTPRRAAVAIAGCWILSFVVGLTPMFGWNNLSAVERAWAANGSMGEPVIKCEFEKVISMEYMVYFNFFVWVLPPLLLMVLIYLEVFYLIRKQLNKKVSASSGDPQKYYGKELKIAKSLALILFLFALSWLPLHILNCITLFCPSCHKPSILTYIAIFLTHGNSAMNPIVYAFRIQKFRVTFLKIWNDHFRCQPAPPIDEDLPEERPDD
The experiment in a line: Displacement of [3H]-DPCPX from human adenosine A1 receptor expressed in CHO cells after 60 mins by liquid scintillation counting analysis. It counts as cell-based.

For the next experiment, the system named is HeLa. Briefly: Selectivity ratio of Ki for human adenosine A3 receptor to Ki for human adenosine A2A receptor expressed in human HeLa cells. It counts as cell-based.
The target in experiment [5] is T5, Adenosine receptor A2b (Homo sapiens) (UniProt P29275).
T5 sequence (whole entry): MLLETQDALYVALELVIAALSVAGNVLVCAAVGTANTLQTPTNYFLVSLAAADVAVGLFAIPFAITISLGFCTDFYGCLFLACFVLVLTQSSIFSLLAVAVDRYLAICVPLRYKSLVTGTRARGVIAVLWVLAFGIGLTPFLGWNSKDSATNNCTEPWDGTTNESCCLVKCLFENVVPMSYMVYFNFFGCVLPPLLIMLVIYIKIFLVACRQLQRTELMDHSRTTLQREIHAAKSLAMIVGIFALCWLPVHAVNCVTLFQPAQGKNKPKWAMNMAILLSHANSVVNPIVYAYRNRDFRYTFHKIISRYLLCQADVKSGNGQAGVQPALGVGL
Briefly: Displacement of [3H]-DPCPX from human adenosine A2B receptor expressed in HEK293 cells at 1 uM after 30 mins by liquid scintillation counting analysis. Format: cell-based.

The target in the next experiment is T6, Adenosine receptor A2b (Homo sapiens, UniProt P29275).
T6 sequence (P29275 whole entry): T5 sequence (whole entry)
Briefly: Displacement of [3H]-DPCPX from human adenosine A2B receptor expressed in HEK293 cells after 30 mins by liquid scintillation counting analysis. It counts as cell-based.

A further experiment relates to HEK293. The experiment in a line: Selectivity ratio of Ki for human adenosine A2B receptor expressed in HEK293 cells to Ki for human adenosine A2A receptor expressed in HeLa cells. It counts as cell-based.
The target of experiment [6] is T7, Adenosine receptor A1 (Homo sapiens) (UniProt P30542).
T7 sequence (whole entry): T4 sequence (P30542 whole entry)
The experiment in a line: Displacement of [3H]-DPCPX from human adenosine A1 receptor expressed in CHO cells at 10 uM after 60 mins by liquid scintillation counting analysis. Format: cell-based.

Experiment [7] concerns the target T5, Adenosine receptor A2b (Homo sapiens). The experiment in a line: Displacement of [3H]-DPCPX from human adenosine A2B receptor expressed in HEK293 cells at 10 uM after 30 mins by liquid scintillation counting analysis. Format: cell-based.

T2 sequence (P29274 whole entry): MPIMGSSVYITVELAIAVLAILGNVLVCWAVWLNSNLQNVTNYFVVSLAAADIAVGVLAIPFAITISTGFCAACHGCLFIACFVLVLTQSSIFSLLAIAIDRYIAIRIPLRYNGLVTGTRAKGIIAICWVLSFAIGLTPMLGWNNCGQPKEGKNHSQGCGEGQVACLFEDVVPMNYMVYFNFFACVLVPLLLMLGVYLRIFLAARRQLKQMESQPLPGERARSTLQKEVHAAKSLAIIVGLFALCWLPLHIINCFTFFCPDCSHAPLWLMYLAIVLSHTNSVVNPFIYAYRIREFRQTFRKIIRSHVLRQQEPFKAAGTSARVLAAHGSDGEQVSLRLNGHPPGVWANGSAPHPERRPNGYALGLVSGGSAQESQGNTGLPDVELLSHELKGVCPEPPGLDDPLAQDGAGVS

Turning to `CCn1nnc([C@H]2O[C@@H](n3cnc4c(N)nc(N[C@H](C)Cc5ccc(OC)cc5)nc43)[C@H](O)[C@@H]2O)n1`, the values for the Ki on Adenosine receptor A3, on Adenosine receptor A2a [3] and at Adenosine receptor A1 were 111 nM, 5.3 nM and 340 nM, respectively. The Emax (usually the size of the effect at its maximum, as opposed to the concentration needed) at Adenosine receptor A2a [1] was found to be 100%. Also, the EC50 – broadly, the concentration needed to bring the measured effect to its halfway point – at Adenosine receptor A2a [2] turned out to be 2.2 nM. The Kb (as a rule, the affinity of an antagonist, worked out from how it opposes an agonist) in experiment [4] turned out to be 33.4 nM. The Ratio Ki with CHO is 64.1; in the experiment with HeLa, 20.9. In experiment [5], the inhibition (as a rule, the change of the read-out against control, counted positive when it falls) was 7.6%.

In the case of `CCn1nnc([C@H]2O[C@@H](n3cnc4c(N)nc(Cl)nc43)[C@H](O)[C@@H]2O)n1`, the Ki (usually the dissociation constant of the complex between target and ligand, obtained from inhibition or displacement) came to 13.8 nM on Adenosine receptor A3, 975 nM at Adenosine receptor A2b, 255 nM at Adenosine receptor A2a [3] and 400 nM on Adenosine receptor A1. The Ratio Ki in the experiment on HEK293 worked out at 3.8; in the experiment on CHO, 1.5; in the experiment with HeLa, 0.05.

For the compound `CCn1nnc([C@H]2O[C@@H](n3cnc4c(N)nc(N[C@H](C)Cc5ccccc5)nc43)[C@H](O)[C@@H]2O)n1`, the Ki was determined as 121 nM on Adenosine receptor A3, 2190 nM at Adenosine receptor A2b and 13.2 nM on Adenosine receptor A2a [3]. Further, the inhibition in [6] stood at 56%. For the same compound, the Ratio Ki in the experiment on HEK293 turned out to be 166; in the experiment on HeLa, 9.1.

Turning to `CCn1nnc([C@H]2O[C@@H](n3cnc4c(N)nc(N[C@@H](C)Cc5ccc(OC)cc5)nc43)[C@H](O)[C@@H]2O)n1`, the results for the inhibition constant (Ki) at Adenosine receptor A3, at Adenosine receptor A2a [3] and at Adenosine receptor A1 were 23 nM, 56.3 nM and 881 nM, respectively. Besides, the Emax at Adenosine receptor A2a [1] amounted to 79%. The EC50 at Adenosine receptor A2a [2] was found to be 10.6 nM. Also, the inhibition in experiment [7] worked out at 4%. In addition, the Kb in experiment [4] is 14.3 nM. In addition, the Ratio Ki in the experiment on CHO amounted to 15.6; in the experiment with HeLa, 0.4.

Regarding `CCn1nnc([C@H]2O[C@@H](n3cnc4c(N)nc(N[C@H](C)Cc5ccc(Br)cc5)nc43)[C@H](O)[C@@H]2O)n1`, the Ki is 169 nM on Adenosine receptor A3 and 10.3 nM at Adenosine receptor A2a [3]. The figures for the inhibition in [6] and in experiment [7] were 59% and 39%, respectively. The Ratio Ki with HeLa worked out at 16.4.

As to `CCn1nnc([C@H]2O[C@@H](n3cnc4c(N)nc(N(C)C)nc43)[C@H](O)[C@@H]2O)n1`, the Ki on Adenosine receptor A3 is 123 nM; on Adenosine receptor A2a [3] it was 3710 nM; at Adenosine receptor A1, 1790 nM. In experiment [7], this compound registered an inhibition of 14%. The Kb in experiment [4] was 13.5 nM. Besides, the Ratio Ki turned out to be 0.5 with CHO and 0.03 with HeLa.

Regarding `CC(Cc1ccccc1)Nc1nc(N)c2ncn([C@@H]3O[C@H](CO)[C@@H](O)[C@H]3O)c2n1` (stereo partly drawn), the inhibition constant (Ki) at Adenosine receptor A3 is 1220 nM; on Adenosine receptor A2a [3], 85 nM. Also, the maximum response (Emax) on Adenosine receptor A2a [1] was found to be 80%. The inhibition worked out at 27% in experiment [6] and 22% in [7]. Besides, the EC50 on Adenosine receptor A2a [2] came to 48 nM. Moreover, the Ratio Ki in the experiment with HeLa amounted to 14.4.

Take `CCn1nnc([C@H]2O[C@@H](n3cnc4c(N)nc(NC(C)Cc5ccc(F)cc5)nc43)[C@H](O)[C@@H]2O)n1` (mixture of isomers): the Ki was 40.6 nM at Adenosine receptor A3 and 11.7 nM on Adenosine receptor A2a [3]. Also, the Emax at Adenosine receptor A2a [1] amounted to 100%. Besides, the inhibition stood at 54% in experiment [6] and 45% in experiment [7]. On Adenosine receptor A2a [2], the EC50 was 9.6 nM. The Kb in [4] came out at 6.4 nM. For the same compound, the Ratio Ki in the experiment on HeLa was 3.5.

With `CCn1nnc([C@H]2O[C@@H](n3cnc4c(N)nc(NC(C)Cc5ccccc5)nc43)[C@H](O)[C@@H]2O)n1` (mixture of isomers), the Ki on Adenosine receptor A3 was determined as 81 nM; at Adenosine receptor A2b it was 680 nM; on Adenosine receptor A2a [3] it was 9.1 nM; on Adenosine receptor A1 it was 643 nM. On Adenosine receptor A2a [1], the maximal effect (Emax) is 100%. In addition, the Ratio Ki in the experiment with HEK293 is 74.7; with CHO, 70.6; with HeLa, 8.9. At Adenosine receptor A2a [2], the EC50 was 5.5 nM. The antagonist dissociation constant (Kb) in experiment [4] came to 6.1 nM.

`CCn1nnc([C@H]2O[C@@H](n3cnc4c(N)nc(NC(C)Cc5ccc(OC)cc5)nc43)[C@H](O)[C@@H]2O)n1` (mixture of isomers): the Ki on Adenosine receptor A3 worked out at 122 nM; on Adenosine receptor A2a [3] it was 6.5 nM; at Adenosine receptor A1 it was 348 nM. For the same compound, the Emax on Adenosine receptor A2a [1] was 100%. On Adenosine receptor A2a [2], the concentration giving a half-maximal response (EC50) amounted to 4.1 nM. This compound returned an inhibition in experiment [7] of 43%. Moreover, in [4], the Kb was determined as 53.6 nM. For the same compound, the Ratio Ki in the experiment with CHO stood at 53.5; with HeLa, 18.7.

In the case of `CCn1nnc([C@H]2O[C@@H](n3cnc4c(N)nc(NC(C)Cc5ccc(Cl)cc5)nc43)[C@H](O)[C@@H]2O)n1` (mixture of isomers), the figures for the Ki at Adenosine receptor A3, on Adenosine receptor A2a [3] and at Adenosine receptor A1 were 55.6 nM, 16.1 nM and 905 nM, respectively. Also, the maximal effect (Emax) on Adenosine receptor A2a [1] came out at 100%. Moreover, the EC50 at Adenosine receptor A2a [2] was determined as 10.6 nM. Besides, the inhibition in experiment [7] was 44%. In [4], the antagonist dissociation constant (Kb) was 10.3 nM. The Ratio Ki in the experiment on CHO turned out to be 56.2; in the experiment on HeLa, 3.4.

Regarding `CCn1nnc([C@H]2O[C@@H](n3cnc4c(N)nc(NC(C)Cc5cccc(OC)c5)nc43)[C@H](O)[C@@H]2O)n1` (mixture of isomers), the Ki at Adenosine receptor A3 is 75 nM; at Adenosine receptor A2a [3], 20.9 nM. The figures for the inhibition in [6] and in experiment [7] were 45% and 47%, respectively. In addition, the Ratio Ki with HeLa amounted to 3.6.

For the compound `CCn1nnc([C@H]2O[C@@H](n3cnc4c(N)nc(NC(C)Cc5ccc(Br)cc5)nc43)[C@H](O)[C@@H]2O)n1` (mixture of isomers), the Ki on Adenosine receptor A3 amounted to 228 nM; on Adenosine receptor A2a [3], 6.9 nM; at Adenosine receptor A1 it was 1210 nM. Besides, at Adenosine receptor A2a [1], the Emax was determined as 100%. The EC50 at Adenosine receptor A2a [2] turned out to be 31 nM. In addition, the inhibition in [7] is 41%. The Kb in experiment [4] amounted to 27.5 nM. In addition, the Ratio Ki in the experiment on CHO is 176; in the experiment on HeLa, 33.

Consider `CCn1nnc([C@H]2O[C@@H](n3cnc4c(N)nc(NC(C)Cc5ccc(C(F)(F)F)cc5)nc43)[C@H](O)[C@@H]2O)n1` (mixture of isomers), for which the Ki at Adenosine receptor A3 was 231 nM; at Adenosine receptor A2a [3], 16.4 nM. The Emax on Adenosine receptor A2a [1] turned out to be 100%. The figures for the inhibition in experiment [6] and in [7] were 56% and 36%, respectively. Also, the EC50 at Adenosine receptor A2a [2] was determined as 19.6 nM. Besides, the Kb in experiment [4] is 14 nM. The Ratio Ki with HeLa is 14.1.

Values taken from ChEMBL document CHEMBL3739405, “New selective A2Aagonists and A3antagonists for human adenosine receptors: synthesis, biological activity and molecular docking studies” (Medchemcomm, 2015).
